Test results as given in patent US20060247261A1 (priority 2002, published 2006).
Counter-ions that a name gives are not always drawn.

Target: T1, human cannabinoid CB2 receptor (Homo sapiens, UniProt P34972)
T1 construct: expressed in transfected cells; host or cells: Saccharomyces cerevisiae strain MMY23 (expresses a chimeric Gpa1/human Galpha-i3 G-protein alpha subunit)
Assay: Cannabinoid CB2 receptor agonist activity, yeast reporter assay
Type: cell-based
Conditions: for Emax: read-out: efficacy (Emax) at the cloned human cannabinoid CB2 receptor
Text: Yeast (Saccharomyces cerevisiae) cells expressing the human cannabinoid CB2 receptor were generated by integration of an expression cassette into the ura3 chromosomal locus of yeast strain MMY23. This cassette consisted of DNA sequence encoding the human CB2 receptor flanked by the yeast GPD promoter to the 5′ end of CB2 and a yeast transcriptional terminator sequence to the 3′ end of CB2. MMY23 expresses a yeast/mammalian chimeric G-protein alpha subunit in which the C-terminal 5 amino acids of Gpa1 are replaced with the C-terminal 5 amino acids of human Gαi3 (as described in Brown et al. (2000), Yeast 16:11-22).
Agonists were prepared as 10 mM stocks in DMSO. […] Agonist solutions in DMSO (1% final assay volume) were transferred into black, clear bottom, microtitre plates from NUNC (96- or 384-well). […] Fluorescence was plotted against compound concentration and iteratively curve fitted using a four parameter fit to generate a concentration effect value.

T1 sequence (P34972 whole entry): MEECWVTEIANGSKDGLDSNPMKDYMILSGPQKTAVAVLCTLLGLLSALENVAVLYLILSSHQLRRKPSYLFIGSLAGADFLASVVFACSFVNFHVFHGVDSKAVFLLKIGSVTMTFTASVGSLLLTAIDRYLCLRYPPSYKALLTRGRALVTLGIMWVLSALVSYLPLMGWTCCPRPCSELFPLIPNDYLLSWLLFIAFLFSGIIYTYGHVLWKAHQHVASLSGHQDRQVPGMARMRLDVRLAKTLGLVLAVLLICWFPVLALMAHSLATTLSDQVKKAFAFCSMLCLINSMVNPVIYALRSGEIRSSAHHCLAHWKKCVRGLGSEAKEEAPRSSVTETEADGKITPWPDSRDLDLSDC

For `O=C(NCc1ccc(F)cc1C(F)(F)F)c1cnc(Nc2cccc(Cl)c2)nc1C(F)(F)F` [Example 74, 2-(3-Chloro-phenylamino)-4-trifluoromethyl-pyrimidine-5-carboxylic acid N-(4-fluoro-2-trifluoromethyl-benzyl)amide], the EC50 was over 1 µM and the Emax was under 50%.
In the case of `O=C(NCc1ccccc1)c1cnc(Nc2cccc(Cl)c2)nc1C(F)(F)F` [Example 1, 2-(3-Chlorophenylamino)-4-trifluoromethylpyrimidine-5-carboxylic acid benzyl-amide], the EC50 is reported as 0.02 to 1 µM and the Emax is reported as over 50%.
`O=C(NCc1ccc(F)cc1)c1cnc(Nc2cc(F)cc(F)c2)nc1C(F)(F)F` [Example 85, 2-(3,5-Difluoro-phenylamino)-4-trifluoromethyl-pyrimidine-5-carboxylic acid 4-fluoro-benzylamide] gave an EC50 of 0.02 to 1 µM and an Emax of over 50%.
`C[C@@H](NC(=O)c1cnc(Nc2cccc(Cl)c2)nc1C(F)(F)F)c1ccccc1` [Example 108, 2-(3-Chloro-phenylamino)-4-trifluoromethyl-pyrimidine-5-carboxylic acid ((R)-1-phenyl-ethyl)-amide] showed an EC50 of over 1 µM and an Emax of under 50%.
`CN(Cc1ccccc1)C(=O)c1cnc(Nc2cc(Cl)cc(Cl)c2)nc1C(F)(F)F` [Example 57, 2-(3,5-Dichloro-phenylamino)-4-trifluoromethyl-pyrimidine-5-carboxylic acid N-benzyl-N-methyl-amide] gave an EC50 of over 1 µM and an Emax of under 50%.
`O=C(NCc1ccnc(F)c1)c1cnc(Nc2ccc(Cl)c(Cl)c2)nc1C(F)(F)F` [Example 92, 2-(3,4-Dichloro-phenylamino)-4-trifluoromethyl-pyrimidine-5-carboxylic acid (2-fluoro-pyridin-4-ylmethyl)-amide] gave an EC50 of 0.02 to 1 µM and an Emax of over 50%.
In the case of `CC(C)(C)c1ccc(Nc2ncc(C(=O)NCc3ccccc3)c(C(F)(F)F)n2)cc1` [2-(4-tert-butyl-phenylamino)-4-trifluoromethyl-pyrimidine-5-carboxylic acid benzylamide], the “activity in the CB2 assay (in words)” value (CB2 assay described herein) is reported as “inactive”.
`Cc1cc(CNC(=O)c2cnc(Nc3cccc(Cl)c3)nc2C(F)(F)F)ccn1` [Example 28, 2-(3-Chloro-phenylamino)-4-trifluoromethyl-pyrimidine-5-carboxylic acid (2-methyl-pyridin-4-ylmethyl)-amide hydrochloride] showed an EC50 of 0.02 to 1 µM and an Emax of over 50%.
`O=C(NCc1cccnc1)c1cnc(Nc2cccc(Cl)c2)nc1C(F)(F)F` [Example 60, 2-(3-Chloro-phenylamino)-4-trifluoromethyl-pyrimidine-5-carboxylic acid N-(pyridin-3-ylmetbyl)-amide] gave an EC50 of over 1 µM and an Emax of under 50%.
`O=C(NCc1ccc(F)c(Cl)c1)c1cnc(Nc2cccc(Cl)c2)nc1C(F)(F)F` [Example 109, 2-(3-Chloro-phenylamino)-4-trifluoromethyl-pyrimidine-5-carboxylic acid 3-chloro,4-fluoro-benzylamide] showed an EC50 of over 1 µM and an Emax of under 50%.
Compound `O=C(NCc1ccc(F)cc1)c1cnc(Nc2cccc(F)c2)nc1C(F)(F)F` [Example 23, 2-(3-Fluorophenylamino)-4-trifluoromethylpyrimidine-5-carboxylic acid 4-fluorobenzyl-amide] has an EC50 of 0.02 to 1 µM and an Emax of over 50%.
With `COc1cccc(Nc2ncc(C(=O)NCc3ccncc3)c(C(F)(F)F)n2)c1` [Example 87] the EC50 was 0.02 to 1 µM and the Emax was over 50%.
For `O=C(NCc1ccncc1)c1cnc(Nc2cccc(Br)c2)nc1C(F)(F)F` [Example 21, 2-(3-Bromophenylamino)-4-trifluoromethylpyrimidine-5-carboxylic acid (pyridin-4-ylmethyl)amide], the EC50 was 0.02 to 1 µM and the Emax was over 50%.
`O=C(NCc1ccc(F)cc1)c1cnc(Nc2ccc(Cl)c(Cl)c2)nc1C(F)(F)F` [Example 102, 2-(3,4-Dichloro-phenylamino)-4-trifluoromethyl-pyrimidine-5-carboxylic acid 4-fluoro-benzylamide] showed an EC50 of 0.02 to 1 µM and an Emax of over 50%.
`O=C(NCc1ccc(OC(F)(F)F)cc1)c1cnc(Nc2cccc(Cl)c2)nc1C(F)(F)F` [Example 62, 2-(3-Chloro-phenylamino)-4-trifluoromethyl-pyrimidine-5-carboxylic acid N-(4-trifluoromethoxybenzyl)amide] showed an EC50 of over 1 µM and an Emax of under 50%.
With `O=C(O)c1cc(Cl)cc(Nc2ncc(C(=O)NCc3ccc(F)cc3)c(C(F)(F)F)n2)c1` [Example 113, 3-Chloro-5-[(4-fluoro-benzylcarbamoyl)-trifluoromethyl-pyrimidin-2-ylarnino]-benzoic acid] the EC50 was over 1 µM and the Emax was under 50%.
`O=C(NCc1ccccc1)c1cnc(Nc2c(Cl)cccc2Cl)nc1C(F)(F)F` [Example 98, 2-(2,6-Dichloro-phenylamino)-4-trifluoromethyl-pyrimidine-5-carboxylic acid benzylamide] showed an EC50 of 0.02 to 1 µM and an Emax of over 50%.
With `O=C(NCc1ccc(Br)cc1)c1cnc(Nc2cccc(Cl)c2)nc1C(F)(F)F` [Example 63, 2-(3-Chloro-phenylamino)-4-trifluoromethyl-pyrimidine-5-carboxylic acid N-(4-bromo-benzyl)amide] the EC50 was over 1 µM and the Emax was under 50%.
Compound `Cc1cc(CNC(=O)c2cnc(Nc3cccc(F)c3)nc2C(F)(F)F)ccn1` [Example 77, 2-(3-Fluoro-phenylamino)-4-trifluoromethyl-pyrimidine-5-carboxylic acid N-(2-methyl-pyridin-4-ylmethyl)-amide] has an EC50 of over 1 µM and an Emax of under 50%.
`O=C(NCc1ccc(F)cc1)c1cnc(Nc2cccc(Cl)c2Cl)nc1C(F)(F)F` [Example 99, 2-(2,3-Dichloro-phenylamino)-4-trifluoromethyl-pyrimidine-5-carboxylic acid 4-fluoro-benzylamide] gave an EC50 of 0.02 to 1 µM and an Emax of over 50%.
`O=C(NCc1ccc(F)cc1)c1cnc(Nc2ccc(C(F)(F)F)c(F)c2)nc1C(F)(F)F` [Example 104, 2-(3-Fluoro-4-trifluoromethyl-phenylamino)-4-trifluoromethyl-pyrimidine-5-carboxylic acid 4-fluoro-benzylamide] gave an EC50 of 0.02 to 1 µM and an Emax of over 50%.
`O=C(NCc1ccnc(F)c1)c1cnc(Nc2c(Cl)cccc2Cl)nc1C(F)(F)F` [Example 93, 2-(2,6-Dichloro-phenylamino)-4-trifluoromethyl-pyrimidine-5-carboxylic acid (2-fluoro-pyridin-4-ylmethyl)-amide] was tested, and the EC50 was 0.02 to 1 µM and the Emax was over 50%.
`CN(Cc1ccccc1)C(=O)c1cnc(Nc2cc(Cl)ccc2Cl)nc1C(F)(F)F` [Example 58, 2-(2,5-Dichloro-phenylamino)-4-trifluoromethyl-pyrimidine-5-carboxylic acid N-benzyl-N-methyl-amide] showed an EC50 of over 1 µM and an Emax of under 50%.
With `O=C(NCc1ccccc1)c1cnc(Nc2ccc(Cl)cc2)nc1C(F)(F)F` [Example 44, 2-(4-Chloro-phenylamino)4-trifluoromethyl-pyrimidine-5-carboxylic acid N-benzylamide] the EC50 was over 1 µM and the Emax was under 50%.
`O=C(NCc1ccc(F)cc1)c1cnc(Nc2c(Cl)cccc2Cl)nc1C(F)(F)F` [Example 70, 2-(2,6-Dichloro-phenylamino)-4-trifluoromethyl-pyrimidine-5-carboxylic acid N-(4-fluoro-benzyl)amide] was tested, and the EC50 was over 1 µM and the Emax was under 50%.
